Data from patent publication US11110158B2, “Prostate-associated antigens and vaccine-based immunotherapy regimens” (Pfizer Inc., priority 2012, dated 2021).

Assays:
LNCaP = experiment: FACS cell binding assay of sera from PSMA vaccinated mice; format: cell-based, human; details: Table 4
Method: Various prostate cancer cell lines were used for this assay. […] The cell binding assay was performed as follows: LNCaP and PC3 cells (or TRAMP-C2PSMA and TRAMP C2) were plated in separate wells at 2×10^5 cells/well (50 μL) in a 96 well plate. Sera from PSMA vaccinated mice, as described in […], were diluted 1:50 with FACS buffer (PBS pH 7.4, 1% FBS, 25 mM HEPES, and 1 mM EDTA). Fifty μL of diluted J591-A antibody (mouse anti-human PSMA antibody, clone J591-A from ATCC) were added to the diluted test sera or FACS buffer (unstained samples) to achieve the appropriate cell numbers per well in the staining plate. All was mixed by pipetting and then kept on ice for 20 min. The cells were washed twice with FACS buffer; each wash was by centrifugation at 1200 RPM at 5° C. for 5 minutes. Fifty μL of secondary staining solution were added containing a 1:200 dilution of PE-labeled goat anti-mouse Ig (Sigma, cat P9670-5) and 0.25 μl of Live/Dead Aqua stain (Invitrogen, cat. #L34957) to each of the cell containing wells and kept on ice for 20 min. Cells were washed twice as described earlier. Washed cell pellets were resuspended in 125 uL FACS buffer and then 75 uL 4% paraformaldehyde solution were added to each well to fix the cells. Samples were kept on ice and protected from light for at least 15 min. Samples were run on FACS Canto II. Ten thousand live cell events were recorded for each sample. […]

[1] = test system: hPSMA full-length protein; experiment: IFN-γ ELISPOT, hPSMA modified versus full-length DNA vaccine in Pasteur (HLA-A2/DR1) transgenic mice; format: in vivo, human
Description: The immune responses induced by DNA vaccination using a construct encoding an immunogenic PSMA polypeptide (the “human PSMA modified antigen” or “hPSMA modified”) consisting 15-750 amino acids (aa) of the native human PSMA protein of SEQ ID NO: 1 were compared with those induced by the native human full-length PSMA protein (hPSMA full length). Groups of female C57BL/6 mice or female Pasteur (HLA-A2/DR1) transgenic mice were primed on day 0 and boosted on days 14, 28 by PMED administration with a 2 μg dose of a DNA vaccine encoding either hPSMA full-length or hPSMA modified protein. Mice were bled and sacrificed on day 35 (7 days after the third vaccination) and T cell immune responses against the hPSMA full-length protein were determined in splenocytes by IFN-γ ELISPOT assay. For C57BL/6 mice, single cell suspensions of 5×10^5 splenocytes from individual animals were plated per well with […] purified hPSMA protein, 5×10^4 TRAMP-C2 cells alone, or TRAMP-C2 cells expressing hPSMA or a PSMA-PSA-PSCA fusion protein. […] Responses in Pasteur mice were also determined using 10 μg/ml purified PSMA protein or 5×10^4 SK-Mel5 cells that had been transduced with Adenoviral vectors expressing a control protein (Ad-eGFP) or the full-length human PSMA protein (Ad-hPSMA). […] The number of IFN-γ SFC was counted by a CTL reader. […]

rhesus PSMA = experiment: IFNγ ELISPOT of PBMCs, rhesus PSMA adenovirus with subcutaneous anti-CTLA-4 in Indian rhesus macaques; format: in vivo; details: versus vaccine alone
Method: Five groups of male Indian rhesus macaques, seven (#1 to 7) per each test group, were immunized with an adenovirus encoding a rhesus PSMA modified polypeptide delivered by bilateral intramuscular injections (2×5e10 V.P.). Immediately following the adenovirus injections, group 1 received vehicle, and groups 2 to 4 received bilateral subcutaneous injections of anti-CTLA-4 antibody (CP-675, 206) at doses 2×25 mg, 2×16.7 mg and 2×8.4 mg respectively in proximity to the vaccine draining lymph node.
Nine days after the immunization, peripheral blood mononuclear cells (PBMCs) were isolated from each animal and were subjected to an IFNγ ELISPOT assay to measure the rhesus PSMA specific T cell responses. Briefly, 4e5 PBMCs from individual animals were plated per well with pools of rhesus PSMA specific peptides (P1, P2, P3 or R1+R2 defined in table 24A) or nonspecific control peptides (human HER2 peptide pool) each at 2 ug/ml in IFNγ ELISPOT plates. The plates were incubated for 16 hrs at 37° C. and 5% CO2 and washed and developed after incubation as per manufacturer's instruction. The number of IFNγ spot forming cells (SFC) were counted by CTL reader. Each condition was performed in duplicates. The average of the duplicates from the background adjusted SFC of the rhesus PSMA specific peptide pools was normalized to the response in 1e6 PBMCs.
A capture antibody specific to IFNγ […]BD Bioscience, #51-2525kc) is coated onto a polyvinylidene fluoride (PVDF) membrane in a microplate overnight at 4° C. The plate is blocked with serum/protein to prevent nonspecific binding to the antibody. After blocking, effector cells (such as splenocytes isolated from immunized mice or PBMCs isolated from rhesus macaques) and targets (such as PSMA peptides from peptide library, target cells pulsed with antigen specific peptides or tumor cells expressing the relevant antigens) are added to the wells and incubated overnight at 37° C. in a 5% CO2 incubator. Cytokine secreted by effector cells are captured by the coating antibody on the surface of the PVDF membrane. […]

## PSMA modified: membrane-bound polypeptide of amino acids 15-750 of human PSMA, SEQ ID NO: 9; tested as DNA construct
LNCaP; binding of serum anti-PSMA antibodies (1:50) to human prostate cancer cells LNCaP by FACS, background PC3
  Fold over background Average (+/−SD): 6.01 (0.38)
LNCaP; mice with serum binding to LNCaP by FACS / N
  # of positive: 4/4
[1]; Example 7, FIG. 27A, day 35, difference between groups not significant
  IFN-γ T cell immune responses to the HLA-A2-restricted CD8+ T cell epitopes: highest magnitude of IFN-γ T cell immune responses
[1]; Example 7, FIG. 27B, day 35, versus hPSMA full-length vaccine
  IFN-γ SFC to the purified hPSMA protein: higher frequencies of IFN-γ SFC

## Tremelimumab: fully human IgG2 anti-CTLA-4 monoclonal antibody, CAS 745013-59-6, SEQ ID NOs:42 and 43
Rhesus PSMA; group 2: 50 mg (2×25 mg) subcutaneous near vaccine draining lymph node, P=0.001
  rhesus PSMA specific IFNγ T cell response: significantly enhanced
Rhesus PSMA; group 3: 33.4 mg subcutaneous, P=0.004
  rhesus PSMA specific IFNγ T cell response: significantly enhanced
Rhesus PSMA; group 4: 16.7 mg subcutaneous, P=0.05
  rhesus PSMA specific IFNγ T cell response: significantly enhanced
